Reference: patent publication US4162325A, “N-substituted lactams” (UCB, Societe Anonyme, priority 1976, dated 1979)
Where “and” joins values, the source holds several entries; their conditions need not be identical. Identical values can stand only once. Like-named read-outs stand apart in the source and are kept apart here.

Assays:
[1] = tested on: rats; test: active avoidance test, memory retention (paw pressure withdrawal) in rats; type: in vivo, rat; settings: for minimal effective dose: sc, read-out: Active dose (minimum dose which reduces the stimulus to below 11 graduations)
Source text: (A) The action on mnemic processes is first shown by the ability of the compounds to improve a type of memory retention in rats. The principle of the active avoidance test (see M. GREINDL and S. PREAT, Arch. Int. Pharmacodyn. Therap. 223,(1976),(1),168-171) developed in our laboratories and used for this purpose may be described as follows: the reaction of withdrawal of a rat's paw when subjected to an increasing and measured pressure is observed. The pressure at which the withdrawal reaction takes place is called the reaction threshold. This threshold is expressed by the number of graduations of the scale of the apparatus used (Analgesy meter UGO BASILE - Milano) and thus corresponds to the minimum pressure which brings about withdrawal when applied to the animal's paw. It is read directly from the scale of the apparatus used.
Inversely, animals treated with a substance having a positive effect on the mnemic processes (for example, piracetam) show a significant degree of retention: the stimulus at which the rats react by a reflex of avoidance is statistically lower than that of the control animals. A minimum of 20 rats are used per test (10 treated rats and 10 control rats) and the active dose is defined as the minimum dose which reduces the stimulus to below 11 graduations.
Subcutaneous administration of compounds of general formula (I), namely compounds A, G, H, I, J, K, L, N, O, P, Q, R, V, W, give, under these conditions, the effects indicated in Table I below.

[2] = tested on: rat; test: reduction of the spinal fixation time in rats; type: in vivo; settings: intraperitoneal, spinal section after 35 minutes
Source text: (B) The action on mnemic processes is also shown by the reduction of the spinal fixation time, a test which has been described in literature (see C. GIURGEA & F. MOURAVIEFF-LESUISSE, Arch. Int. Pharmacodyn. 191/2,(1971),279) as an elementary memory model and which provides pharmacological reactivity in good correlation with clinical physiopathology. In the rat, after unilateral section of the cerebellum, there is a postural asymmetry of the hind paws. This asymmetry may persist, even after spinal section, if the animal has passed a sufficient period of time in this position. This time, which is called the spinal fixation time, is 45 minutes under the experimental conditions applied here.
On the other hand, if spinal section is performed before the expiry of this period of time, for example 35 minutes after the onset of the asymmetry, the latter disappears.
No animal treated with placebos retains the asymmetry under these conditions.
Inversely, any product which allows the rats to retain the asymmetry (thus effecting spinal fixation) when the spinal section is performed after 35 minutes, is considered to be active.
Intraperitoneal administration of compound A gives rise to the effects described in Table II. By "number of animals" is to be understood the number of animals which responded positively to the test, in relation to the number of animals tested at the indicated dose: […]

[3] = tested on: mice; test: protection against aggressions of the hypoxic type (lethality induced by oxydipentonium chloride) in mice; type: in vivo; settings: 1 h, mouse, intraperitoneal, one hour before curarizer, read-out: Proportion of survivors, treated animals; for responders at 320 µM, 320 µmol/kg: 0.32 mM/kg (A 64, I 95, J 68, Piracetam 45 mg/kg), control 1/10, Piracetam 0/10; for responders at 10 µM, 10 µmol/kg: 0.01 mM/kg (B 2.6, G 2.6, H 2.4 mg/kg), control B 1/10, G 1/10, H 2/10; for responders at 100 µM, 100 µmol/kg: 0.1 mM/kg (F 24, G 25.5, H 24, I 30, J 21, K 23, L 23 mg/kg), control 1/10, F 0/10
Description: Protection against aggressions of the hypoxic type is shown by a reduction of the lethality induced by a curarizer, the duration of action of which is short, namely oxydipentonium chloride (Brevatonal). At the doses used, this curarizer brings about a respiratory depression which, in turn, brings about a hypoxi-hypercapnic syndrome. A compound capable of protecting the brain during this brief period of hypoxia ensures survival. The compounds are administered to groups of 10 mice one hour before the injection of the curarizer; in a parallel test, a control group of 10 mice are given physiological salt solution before the curarizer. This test has also been developed in our laboratories (see, for the principle of this test, S. LEVIS et al.; Arch. Int. Pharmacodyn. Therap, 93,(1953),1,46-54).
Intraperitoneal administration of compounds of general formula (I), namely, products A, B, F, G, H, I, J, K, L, gives the results shown in Table III: […]

[4] = toxicity, LD50 in rat; settings: in vivo
Source text: The tested compounds have a remarkably low toxicity. Table V gives the toxicities, after intravenous administration, of some of the compounds of the present invention: […]

[5] = tested on: papillary muscle isolated from the rabbit heart; test: cardiac activity on isolated papillary muscle of rabbit heart; settings: for activation at 100 µg/mL / activation at 10 µg/mL: Oryctolagus cuniculus, read-out: percentage increase of the tension measured
Source text: This has been shown by the method employing the papillary muscle isolated from the rabbit heart, according to the method of H. G. Schoepke and F. E. Shiddeman, J. Pharmacol. Exptl. Therap. 133,(1961), 171.
The reactivity of various compounds of general formula (I) after each experiment is checked against theophylline. Table IV gives some of the results observed, expressed as a percentage increase of the tension measured.

SMILES | minimal effective dose ([1]; Rattus norvegicus, 24 h) | activity compared with piracetam in the active avoidance test ([1]; rat, subcutaneous) | LD50 ([4]; intravenous) | responders at 100 µM, 100 µmol/kg [3] [%] | other results
NC(=O)CNC(=O)CN1CCCC1=O [A, 2-(2-Oxo-1-pyrrolidineacetamido)-acetamide] | 0.4 mg/kg and 2 µmol/kg | superior to that of piracetam | > 5000 µmol/kg and > 1000 mg/kg |  | Number of animals which responded positively / number tested ([2]; 6.4 mg/kg (0.032 mM/kg)): 3/7; Number of animals which responded positively / number tested ([2]; 20.0 mg/kg (0.1 mM/kg)): 4/5; responders at 320 µM, 320 µmol/kg [3]: 70%
CCCCNC(=O)CNC(=O)CN1CCCC1=O [Compound B, N-n-Butyl-2-(2-oxo-1-pyrrolidineacetamido)-acetamide] |  |  | > 4000 µmol/kg and > 1020 mg/kg |  | responders at 10 µM, 10 µmol/kg [3]: 60%; responders at 32 µM, 8.2 mg/kg ([3]; ip, 0.032 mM/kg (B 8.2 mg/kg), control 1/10): 80%
CN(CC(=O)Nc1ccccc1)C(=O)CN1CCCC1=O [Compound E, 2-(N-Methyl-2-oxo-1-pyrrolidineacetamido)-N-phenylacetamide] |  |  |  |  | activation at 100 µg/mL [5]: 22%
CC(C)NC(=O)CNC(=O)CN1CCCC1=O [Compound F, N-isopropyl-2-(2-oxo-1-pyrrolidineacetamido)-acetamide] |  |  | > 3000 µmol/kg and > 723 mg/kg | 40 | 
CCC(C(=O)NCC(N)=O)N1C(=O)CCC1(C)C (stereo not drawn) [Compound G, 2-(alpha-ethyl-5,5-dimethyl-2-oxo-1-pyrrolidineacetamido)-acetamide] | 0.51 mg/kg and 2 µmol/kg | superior to that of piracetam | > 2800 µmol/kg and > 714 mg/kg | 60 | responders at 10 µM, 10 µmol/kg [3]: 40%
CC(C(=O)NCC(N)=O)N1C(=O)CCC1(C)C (stereo not drawn) [Compound H, 2-(alpha,5,5-trimethyl-2-oxo-1-pyrrolidineacetamido)-acetamide] | 0.0024 mg/kg and 0.01 µmol/kg | superior to that of piracetam | > 3100 µmol/kg and > 747 mg/kg | 100 | responders at 10 µM, 10 µmol/kg [3]: 60%; activation at 10 µg/mL [5]: 10%; action against anoxia ([5]; same test (isolated papillary muscle, rabbit heart)): protective action against anoxia
CCCNC(=O)CNC(=O)C(CC)N1C(=O)CCC1(C)C (stereo not drawn) [Compound I, 2-(alpha-ethyl-5,5-dimethyl-2-oxo-1-pyrrolidineacetamido)-N-propylacetamide] | 5.94 mg/kg and 20 µmol/kg | superior to that of piracetam |  | 50 | responders at 320 µM, 320 µmol/kg [3]: 80%; LD50 ([4]; ip, intraperitoneal): > 2500 µmol/kg and > 743 mg/kg
CC(C(=O)NCC(N)=O)N1CCCC1=O (stereo not drawn) [Compound J, 2-(alpha-methyl-2-oxo-1-pyrrolidineacetamido)-acetamide] | 0.21 mg/kg and 1 µmol/kg | superior to that of piracetam | > 2600 µmol/kg and > 554 mg/kg | 60 | responders at 320 µM, 320 µmol/kg [3]: 100%
CCC(C(=O)NCC(N)=O)N1CCCC1=O (stereo not drawn) [Compound K, 2-(alpha-ethyl-2-oxo-1-pyrrolidineacetamido)-acetamide] | 4.54 mg/kg and 20 µmol/kg | superior to that of piracetam | > 2500 µmol/kg and > 568 mg/kg | 70 | activation at 100 µg/mL [5]: 44%
NC(=O)CNC(=O)C1(N2CCCC2=O)CC1 [Compound L, 2-[1-(2-oxo-pyrrolidino)-cyclopropanecarboxamido]-acetamide] | 0.23 mg/kg and 1 µmol/kg | superior to that of piracetam |  | 80 | 
CN(C)C(=O)CNC(=O)CN1CCCC1=O [Compound M, N,N-ddimethyl-2-(2-oxo-1-pyrrolidineacetamido)-acetamide] |  |  |  |  | activation at 10 µg/mL [5]: 10%
CN(CC(N)=O)C(=O)CN1CCCC1=O [Compound N, 2-(N-methyl-2-oxo-1-pyrrolidineacetamido)-acetamide] | 2.13 mg/kg and 10 µmol/kg | superior to that of piracetam |  |  | 
CNC(=O)CN(C)C(=O)CN1CCCC1=O [Compound O, N-methyl-2-(N-methyl-2-oxo-1-pyrrolidineacetamido)-acetamide] | 2.27 mg/kg and 10 µmol/kg | superior to that of piracetam |  |  | 
CN(C)C(=O)CN(C)C(=O)CN1CCCC1=O [Compound P, N,N-dimethyl-2-(N-methyl-2-oxo-1-pyrrolidineacetamido)-acetamide] | 2.41 mg/kg and 10 µmol/kg | superior to that of piracetam |  |  | 
CC(NC(=O)CN1CCCC1=O)C(N)=O (centres unmarked) [Compound Q, 2-methyl-2-(2-oxo-1-pyrrolidineacetamido)-acetamide] | 2.13 mg/kg and 10 µmol/kg | superior to that of piracetam |  |  | 
NC(=O)C(NC(=O)CN1CCCC1=O)c1ccccc1 (centres unmarked) [Compound R, 2-(2-oxo-1-pyrrolidineacetamido)-2-phenylacetamide] | 2.75 mg/kg and 10 µmol/kg | superior to that of piracetam |  |  | 
NC(=O)CNC(=O)CN1CCCCCC1=O [Compound V, 2-(hexahydro-2-oxo-1H-azepine-1-acetamido)-acetamide] |  | superior to that of piracetam |  |  | minimal effective dose ([1]; rat, subcutaneous, tested 24 hours later): 2.27 mg/kg and 10 µmol/kg
CCCCC(C(=O)NCC(N)=O)N1CCCC1=O (stereo not drawn) [Compound W, 2-(alpha-n-butyl-2-oxo-1-pyrrolidineacetamido)-acetamide] | 2.55 mg/kg and 10 µmol/kg | superior to that of piracetam |  |  | 
CCCCC1CCN(CC(=O)NCC(N)=O)C1=O (centres unmarked) [Compound X, 2-(3-n-butyl-2-oxo-1-pyrrolidineacetamido)-acetamide] |  |  |  |  | activation at 100 µg/mL [5]: 25%
Cn1c(=O)c2[nH]cnc2n(C)c1=O [Theophylline, reference compound] |  |  |  |  | activation at 100 µg/mL ([5]; 100 μg/ml): 38%
